These results are taken from patent US20230099344A1, “COMPOUNDS AND METHODS FOR THE TARGETED DEGRADATION OF IRAK-4” (Arvinas Operations, Inc., priority 2021, published 2023).

Structures are written as SMILES.

What all share (type): cell-based
The target of one test is T1, IRAK-4 (Homo sapiens, UniProt Q9NWZ3).
T1 sequence (Q9NWZ3 1-460): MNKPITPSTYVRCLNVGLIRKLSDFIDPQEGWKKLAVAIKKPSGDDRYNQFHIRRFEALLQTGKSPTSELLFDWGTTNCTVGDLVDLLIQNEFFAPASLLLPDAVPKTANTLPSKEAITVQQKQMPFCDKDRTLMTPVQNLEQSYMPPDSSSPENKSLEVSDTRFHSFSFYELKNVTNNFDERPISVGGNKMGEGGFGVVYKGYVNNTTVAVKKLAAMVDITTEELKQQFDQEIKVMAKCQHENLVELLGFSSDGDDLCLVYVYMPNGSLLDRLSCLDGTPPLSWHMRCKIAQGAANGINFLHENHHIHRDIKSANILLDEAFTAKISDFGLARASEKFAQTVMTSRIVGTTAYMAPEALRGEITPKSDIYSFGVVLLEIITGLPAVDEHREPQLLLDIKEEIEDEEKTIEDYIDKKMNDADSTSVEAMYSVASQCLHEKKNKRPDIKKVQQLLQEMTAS
Briefly: IRAK-4 ELISA, PBMC degradation. Set-up: endogenous in cells; host or cells: PBMC. The conditions noted are these: treated overnight. In outline: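 Steps: seed cells (OCI-Ly10 1×10^6/ml; PBMC 2×10^6/ml); add compound the same day; incubate overnight; lyse; quantify IRAK-4 by matched-pair ELISA.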

Test [1] concerns IL6. As to the kind of experiment: LPS stimulated IL6 inhibition assay in PBMC. The conditions noted are these: Homo sapiens, PBMC, 24 h, human PBMCs, LPS stimulation, compound overnight, IL6 by MSD after 24 hrs; for Dmax: read-out: LPS Stim IL6 inhibition Dmax; for IC50: read-out: LPS stim IL6 inhibition IC50. The method, boiled down: (§1)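 Seed human PBMC, 2.0×10^6 cells/mL → compound overnight → stimulant (IL-1β, LPS or R848) at per-donor EC50 → 24 hrs → media to MSD for IL6/IL8.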

Test [2] deals with IL6. As to the kind of experiment: R848 stimulated IL6 inhibition assay in PBMC. The conditions noted are these: PBMC, human PBMCs, R848 stimulation, compound overnight, IL6 by MSD after 24 hrs; for Dmax: Homo sapiens, 24 h, read-out: R848 stim IL6 inhibition Dmax; for IC50: read-out: R848 stim IL6 inhibition IC50. In outline: as §1

As for `O=C1CCC(N2C(=O)c3ccc(N4CC[C@@H](N5CCC(n6cc7cc(NC(=O)c8cnn9cccnc89)c(OCC8CC8)cc7n6)CC5)C4)cc3C2=O)C(=O)N1` (stereo partly shown) [Example 224], on IRAK-4, the DC50 was in the range of 0.001 to 0.005 µM; the Dmax lay within 80 to 90%; the “PBMC DC90” value is “B (B represents a DC90 value ≥10.0 nM and <25.0 nM)”. In the test with IL6 [1], the Dmax was in the range of 80 to 90% and the IC50 was 0.01 to 0.05 µM. Moreover, in the test on IL6 [2], the Dmax was at least 90% and the IC50 fell in the range of 0.01 to 0.05 µM.

On to `O=C1CCC(N2C(=O)c3ccc(N4CC(F)(CN5CCC(n6cc7cc(NC(=O)c8cnn9cccnc89)c(OCC(F)F)cc7n6)CC5)C4)cc3C2=O)C(=O)N1` (stereo not shown) [Example 231], for which, on IRAK-4, the DC50 is 0.001 to 0.005 µM, the Dmax lay in the range of 80 to 90% and the “PBMC DC90” value is given as “A (A represents a DC90 value <10.0 nM)”. In addition, in the test on IL6 [1], the Dmax lay in the range of 80 to 90% and the IC50 lay within 0.01 to 0.05 µM. For the same molecule, in the test on IL6 [2], the Dmax was at least 90% and the IC50 lay in the range of 0.01 to 0.05 µM.

With `COc1cc(N2CC(F)(CN3CCC(n4cc5cc(NC(=O)c6cnn7cccnc67)c(OCC6CC6)cc5n4)CC3)C2)cc2c1C(=O)N(C1CCC(=O)NC1=O)C2=O` (stereo not shown) [Example 240], at IRAK-4, the DC50 was below 0.001 µM, the Dmax is 80 to 90% and the “PBMC DC90” value is given as “A (A represents a DC90 value <10.0 nM)”. In the test with IL6 [1], the Dmax fell in the range of 80 to 90% and the IC50 lay within 0.05 to 0.1 µM. Besides, in the test on IL6 [2], the Dmax is at least 90% and the IC50 lay within 0.01 to 0.05 µM.

Regarding `COc1cc(N2CC(F)(CN3CCC(n4cc5cc(NC(=O)c6cnn7cccnc67)c(OC(C)C)nc5n4)CC3)C2)cc2c1C(=O)N(C1CCC(=O)NC1=O)C2=O` (stereo not shown) [Example 241], at IRAK-4, the DC50 lay within 0.001 to 0.005 µM; the Dmax fell in the range of 70 to 80%; the “PBMC DC90” value is “B (B represents a DC90 value ≥10.0 nM and <25.0 nM)”. For the same molecule, the half-maximal inhibitory concentration (IC50) in the test with IL6 [1] was at least 0.1 µM. Besides, in the test on IL6 [2], the Dmax is 80 to 90% and the IC50 was 0.01 to 0.05 µM.

For the molecule `O=C1CCC(N2C(=O)c3ccc(N4CC(F)(CN5CCC(n6cc7cc(NC(=O)c8cnn9cccnc89)c(N8CCC(N9CCC9)CC8)cc7n6)CC5)C4)cc3C2=O)C(=O)N1` (stereo not shown) [Example 243], on IRAK-4, the 50% degradation concentration (DC50) lay in the range of 0.005 to 0.01 µM, the Dmax lay in the range of 80 to 90% and the “PBMC DC90” value was “D (D represents a DC90 value ≥50 nM)”. Besides, in the test with IL6 [1], the Dmax is below 70% and the IC50 was in the range of 0.01 to 0.05 µM. In addition, in the test with IL6 [2], the Dmax is at least 90% and the IC50 was 0.01 to 0.05 µM.

Turning to `O=C1CCC(N2Cc3ccc(N4CC(F)(CN5CCC(n6cc7cc(NC(=O)c8cnn9cccnc89)c(OCC8CC8)cc7n6)CC5)C4)cc3C2=O)C(=O)N1` (stereo not shown) [Example 245], at IRAK-4, the DC50 lay within 0.001 to 0.005 µM, the Dmax was 70 to 80% and the “PBMC DC90” value is on record as “A (A represents a DC90 value <10.0 nM)”. For the same molecule, in the test on IL6 [1], the Dmax is 80 to 90% and the IC50 was 0.01 to 0.05 µM. Moreover, in the test with IL6 [2], the Dmax is at least 90% and the IC50 is below 0.01 µM.

On to `COc1c(N2CC(F)(CN3CCC(n4cc5cc(NC(=O)c6cnn7cccnc67)c(OCC6CC6)cc5n4)CC3)C2)ccc2c1C(=O)N(C1CCC(=O)NC1=O)C2=O` (stereo not shown) [Example 246], for which, on IRAK-4, the DC50 lay within 0.005 to 0.01 µM; the Dmax is below 70%; the “PBMC DC90” value is “B (B represents a DC90 value ≥10.0 nM and <25.0 nM)”. Moreover, in the test on IL6 [1], the Dmax lay in the range of 70 to 80% and the IC50 was below 0.01 µM. In addition, in the test with IL6 [2], the Dmax is at least 90% and the IC50 is below 0.01 µM.

Consider `O=C1CCC(N2C(=O)c3ccc(N4CCCC5(CN(CCN6CCC(n7cc8cc(NC(=O)c9cnn%10cccnc9%10)c(OCC9CC9)cc8n7)CC6)C5)C4)cc3C2=O)C(=O)N1` (stereo not shown) [Example 248], for which, on IRAK-4, the DC50 fell in the range of 0.001 to 0.005 µM, the Dmax is below 70% and the “PBMC DC90” value is “A (A represents a DC90 value <10.0 nM)”. In addition, in the test on IL6 [1], the Dmax was below 70% and the IC50 was 0.01 to 0.05 µM. Also, in the test with IL6 [2], the Dmax was at least 90% and the IC50 is 0.01 to 0.05 µM.

A word on the DC50: it is the midpoint of the concentration-degradation curve. Lower therefore signals a more potent degrader. Usually IC50 stands for the midpoint of a concentration-inhibition curve.
